# Experiments:
# [1] = tested on: S. aureus (ATCC 23235); assay: microbe, parasite or virus in culture; type: cell-based; settings: Staphylococcus aureus; for MBC: ATCC23235; for MIC: ATCC23235, 24 h
# [2] = tested on: P. aeruginosa (ATCC 15442); assay: MIC and MBC, microtiter plate technique; type: cell-based; settings: ATCC15442, Pseudomonas aeruginosa; for MIC: 24 h, resazurin; for MBC: TTC
# [3] = tested on: E. coli R2 (ATCC 39544); assay: MIC and MBC, microtiter plate technique; type: cell-based; settings: Escherichia coli; for MBC: ATCC39544; for MIC: ATCC39544, 24 h
# [4] = tested on: E. cloacae (ATCC 49141); assay: MIC and MBC, microtiter plate technique; type: cell-based; settings: ATCC49141, Enterobacter cloacae; for MIC: 24 h, resazurin; for MBC: TTC
# [5] = tested on: E. coli K12 (ATCC 25404); assay: MIC and MBC, microtiter plate technique; type: cell-based; settings: Escherichia coli; for MBC: ATCC25404; for MIC: ATCC25404, 24 h
# [6] = tested on: A. baumannii (ATCC 17978); assay: MIC and MBC, microtiter plate technique; type: cell-based; settings: ATCC17978, Acinetobacter baumannii; for MIC: 24 h, resazurin; for MBC: TTC
# [7] = tested on: E. coli R4 (ATCC 39543); assay: MIC and MBC, microtiter plate technique; type: cell-based; settings: Escherichia coli; for MBC: ATCC39543; for MIC: ATCC39543, 24 h
# [8] = tested on: E. coli R3 (ATCC 11775); assay: MIC and MBC, microtiter plate technique; type: cell-based; settings: Escherichia coli; for MIC: ATCC11775, 24 h, resazurin; for MBC: ATCC11775, TTC
# [9] = target: T1, mushroom tyrosinase (mTYR) (Agaricus bisporus, UniProt C7FF04); assay: Tyrosinase assay with L-DOPA as substrate (absorbance at 475 nm); type: biochemical; settings: 100 µM compound
# T1 construct: purchased Sigma-Aldrich (Poznan, Poland); host or cells: Agaricus bisporus (extracted natural enzyme)
# T1 sequence (C7FF04 1-392 limits assumed): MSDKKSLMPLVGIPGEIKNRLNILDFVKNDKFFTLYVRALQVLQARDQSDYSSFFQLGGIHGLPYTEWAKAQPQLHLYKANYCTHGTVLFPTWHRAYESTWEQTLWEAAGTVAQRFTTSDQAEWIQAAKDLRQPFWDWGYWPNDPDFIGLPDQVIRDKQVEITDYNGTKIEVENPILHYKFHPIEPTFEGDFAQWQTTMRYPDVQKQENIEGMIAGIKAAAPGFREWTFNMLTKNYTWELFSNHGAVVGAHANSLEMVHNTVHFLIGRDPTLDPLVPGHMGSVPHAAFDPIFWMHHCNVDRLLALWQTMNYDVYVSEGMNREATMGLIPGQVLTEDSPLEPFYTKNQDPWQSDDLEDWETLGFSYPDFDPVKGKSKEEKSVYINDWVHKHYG
# Excerpt: Tyrosinase (Tyr) extracted from Agaricus bisporus (mushroom tyrosinase, mTYR) is commonly used as a model enzyme for human Tyr due to its high purity, stability, and commercial availability. It is frequently used in the selection of TYR inhibitors. Following established literature protocols, L-tyrosine and L-DOPA, which serve as substrates for monophenol and diphenol oxidation, respectively, were used to assess the tyrosinase inhibitory activity of synthesized target compounds [21].
# Tyrosinase (Tyr) activity was measured using L-DOPA as substrate and phosphate buffer solution (PBS) as blank control, following the method described by Min He et al. (2022) with an ultraviolet spectrophotometer (Carry-300, Agilent Life Sciences and Chemical Analysis, Santa Clara, CA, USA). […] Before the experiment, 2.9 mL of PBS and 0.1 mL of DMSO were used to account for the influence of the background solvent. The inhibitor solution (100 µL), substrate solution (2.8 mL), and Tyr solution (100 µL) were then added to a quartz colorimetric cuvette. After a one-minute mixing period, the absorption spectra of the mixture were continuously recorded at 475 nm using the UV spectrophotometer (Carry-300) for 5 min over a period of every 30 s. The tyrosinase inhibition rate was calculated as follows:Relative enzyme activity (%) = (A1 − A2)/A1 × 100
# A1 = Absorbance of L-DOPA and inhibitor.
# A2 = Absorbance of L-DOPA, inhibitor, and tyrosinase.
Structure (SMILES),MBC [1],MIC [1],MIC [2],MBC [2],MBC [3],MIC [3],MIC [4],MBC [4],MBC [5],MIC [5],MIC [6],MBC [6],MBC [7],MIC [7],MIC [8],MBC [8],inhibition at 100 µM [9]
CCCCN(C(=O)Cc1ccccc1)C(C(=O)NCc1ccc(OC)cc1)c1ccc(O)c(O)c1 (stereo not shown) [Compound 5h],0.67 µM,0.67 µM,0.69 µM,0.72 µM,1.07 µM,0.86 µM,0.74 µM,0.73 µM,0.71 µM,0.25 µM,0.73 µM,0.75 µM,1.42 µM,1.36 µM,1.07 µM,1.19 µM,< 10%
"COc1ccc(CNC(=O)C(c2ccc(O)c(O)c2)N(Cc2ccc(OC)cc2)C(=O)Cc2ccccc2)cc1 (stereo not shown) [Compound 5b, 2-(3,4-dihydroxyphenyl)-N-(4-methoxybenzyl)-2-(N-(4-methoxybenzyl)-2-phenylacetamido)-acetamide]",0.96 µM,0.9 µM,0.96 µM,0.99 µM,1.03 µM,0.98 µM,1 µM,1.05 µM,0.61 µM,0.45 µM,0.83 µM,0.9 µM,2.21 µM,2 µM,1.61 µM,1.7 µM,> 10%
"CCCCN(C(C)=O)C(C(=O)NCc1ccc(F)cc1)c1ccc(O)c(O)c1 (stereo not shown) [Compound 5r, 2-(N-butylacetamido)-2-(3,4-dihydroxyphenyl)-N-(4-fluorobenzyl)acetamide]",1.54 µM,1.51 µM,1.64 µM,1.49 µM,1.51 µM,1.5 µM,1.67 µM,1.5 µM,0.94 µM,0.74 µM,1.26 µM,1.31 µM,3.5 µM,3.13 µM,2.56 µM,3.14 µM,< 10%
"CCCCN(C(=O)Cc1ccccc1)C(C(=O)NCc1ccccc1)c1ccc(O)c(O)c1 (stereo not shown) [Compound 5g, N-benzyl-2-(N-butyl-2-phenylacetamido)-2-(3,4-dihydroxyphenyl)acetamide]",0.8 µM,0.73 µM,0.7 µM,0.78 µM,1.23 µM,0.94 µM,0.72 µM,0.77 µM,0.71 µM,0.42 µM,0.79 µM,0.82 µM,1.41 µM,1.5 µM,1.02 µM,1.23 µM,> 10%
O=C(NCc1ccc(F)cc1)C(c1ccc(O)c(O)c1)N(C(=O)Cc1ccccc1)C1CCCCC1 (stereo not shown) [Compound 5f],0.71 µM,0.68 µM,0.64 µM,0.69 µM,0.75 µM,0.65 µM,0.68 µM,0.73 µM,0.61 µM,0.22 µM,0.68 µM,0.71 µM,1.3 µM,1.28 µM,0.83 µM,1.18 µM,< 10%
